Results: US10093683B2, “Factor XIa inhibitors” (Merck Sharp & Dohme Corp., priority 2014, dated 2018)
Read-outs that look alike come from different tables or passages of the source.

Key:
[1] = molecular target: human Factor XIa (Homo sapiens (Human), UniProt P03951); experiment: Factor XIa Assay; assay type: biochemical; settings: read-out: FXIa Ki
Method in brief: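 Ki derived from the dependence of Vo/Vi on inhibitor concentration under a competitive-inhibition model, after pre-equilibration of enzyme and inhibitor. Reaction: 40 pM human FXIa, 100 μM Z-Gly-Pro-Arg-AFC, HEPES 50 mM pH 7.4 with NaCl, CaCl2 and PEG 8000; run at room temperature or 37° C.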

[2] = molecular target: Human plasma kallikrein (Homo sapiens (Human), UniProt P03952); experiment: Kallikrein Assay; assay type: biochemical; settings: purified Human plasma kallikrein 0.5 nM, Acetyl-K-P-R-AFC, pH 7.4; Ki from IC50 by Cheng Prusoff
Method: The effectiveness of a compound of the present invention as an inhibitor of Kallikrein can be determined using a relevant purified serine protease, and an appropriate synthetic substrate. The rate of hydrolysis of the chromogenic or fluorogenic substrate by the relevant serine protease was measured both in the absence and presence of compounds of the present invention. Assays were conducted at room temperature or at 37° C. […] A decrease in the rate of fluorescence change in the presence of inhibitor is indicative of enzyme inhibition. Such methods are known to one skilled in the art. The results of this assay are expressed as the inhibitory constant, Ki.
Kallikrein determinations were made in 50 mM HEPES buffer at pH 7.4 containing 150 mM NaCl, 5 mM CaCl2, and 0.1% PEG 8000 (polyethylene glycol; Fisher Scientific). Determinations were made using purified Human plasma kallikrein at a final concentration of 0.5 nM (Enzyme Research Laboratories) and the synthetic substrate, Acetyl-K-P-R-AFC (Sigma #C6608) at a concentration of […].
Times required to achieve equilibration between enzyme and inhibitor were determined in control experiments. The reactions were performed under linear progress curve conditions and fluorescence increase measured at 405 Ex/510 Em nm. […] IC50 was determined by inflection point from a four parameter logistic curve fit. Ki was calculated using the Cheng Prusoff equation, Ki=IC50/(1+([S]/Km)).

[3] = purified human Factor XIa 40 pM, Z-Gly-Pro-Arg-AFC 100 μM, pH 7.4

human Factor XIa, sequence (P03951 388-625): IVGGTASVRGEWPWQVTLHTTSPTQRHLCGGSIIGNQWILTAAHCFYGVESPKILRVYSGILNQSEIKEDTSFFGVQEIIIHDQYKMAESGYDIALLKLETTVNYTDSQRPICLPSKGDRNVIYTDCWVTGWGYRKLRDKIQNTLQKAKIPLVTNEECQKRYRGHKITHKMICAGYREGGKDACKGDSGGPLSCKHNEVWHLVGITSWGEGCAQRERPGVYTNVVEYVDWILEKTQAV
human Factor XIa, sequence (P03951 19-387 partner): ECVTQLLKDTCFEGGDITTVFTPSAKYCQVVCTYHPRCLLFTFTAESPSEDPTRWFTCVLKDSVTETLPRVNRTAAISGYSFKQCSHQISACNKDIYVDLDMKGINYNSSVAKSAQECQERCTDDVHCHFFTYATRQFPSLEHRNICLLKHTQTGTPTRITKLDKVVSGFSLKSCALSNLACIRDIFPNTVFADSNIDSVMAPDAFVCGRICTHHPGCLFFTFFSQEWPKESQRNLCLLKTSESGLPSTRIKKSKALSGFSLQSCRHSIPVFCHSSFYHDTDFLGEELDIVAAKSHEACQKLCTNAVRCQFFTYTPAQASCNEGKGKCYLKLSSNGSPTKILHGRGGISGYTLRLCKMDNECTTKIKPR
Human plasma kallikrein, sequence (P03952 391-638): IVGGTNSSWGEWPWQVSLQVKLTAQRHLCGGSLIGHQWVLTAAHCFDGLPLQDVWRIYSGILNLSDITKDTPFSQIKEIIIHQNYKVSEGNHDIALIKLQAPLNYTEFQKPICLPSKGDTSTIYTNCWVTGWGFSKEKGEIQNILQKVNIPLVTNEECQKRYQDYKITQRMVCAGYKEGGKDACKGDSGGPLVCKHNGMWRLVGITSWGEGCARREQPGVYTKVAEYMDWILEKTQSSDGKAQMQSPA
Human plasma kallikrein, sequence (P03952 20-390 partner): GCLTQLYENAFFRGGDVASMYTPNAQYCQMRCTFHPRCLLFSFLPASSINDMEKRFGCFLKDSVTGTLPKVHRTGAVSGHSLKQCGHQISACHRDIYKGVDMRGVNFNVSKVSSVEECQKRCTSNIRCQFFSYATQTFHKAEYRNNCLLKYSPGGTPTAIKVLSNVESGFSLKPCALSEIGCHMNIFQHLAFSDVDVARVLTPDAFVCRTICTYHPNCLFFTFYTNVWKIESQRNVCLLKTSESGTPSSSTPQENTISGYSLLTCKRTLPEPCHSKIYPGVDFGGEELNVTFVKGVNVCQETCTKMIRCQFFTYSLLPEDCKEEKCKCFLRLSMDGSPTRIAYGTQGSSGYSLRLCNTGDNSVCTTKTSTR

SMILES	Ki [1, 3] [nM]	Ki [2] [nM]	Ki [1] [nM]
COC(=O)Nc1ccc(C(=O)N[C@@H](Cc2ccc(-c3cc(C(F)(F)F)nn3C)cc2)C(=O)N2CC[C@@]3(C2)OC(=O)Nc2ccc(Cl)cc23)cc1 [Example 81, methyl (4-(((S)-1-((R)-6-chloro-2-oxo-1,2-dihydrospiro[benzo[d][1,3]oxazine-4,3′-pyrrolidin]-1′-yl)-3-(4-(1-methyl-3-(trifluoromethyl)-1H-pyrazol-5-yl)phenyl)-1-oxopropan-2-yl)carbamoyl)phenyl)carbamate]	29.9	7.98	
Cc1[nH]c2ccc(C(=O)N[C@@H](Cc3ccccc3)C(=O)N3CCC[C@@]4(C3)OC(=O)Nc3ccc(Cl)cc34)cc2c1C(=O)O [Example 249]		< 1.36	2.02
COC(=O)Nc1ccc(C(=O)N[C@@H](Cc2ccc(C#N)cc2)C(=O)N2CCC[C@@]3(C2)OC(=O)Nc2ccc(Cl)cc23)cc1 [Example 45, methyl (4-(((S)-1-((R)-6-chloro-2-oxo-1,2-dihydrospiro[benzo[d][1,3]oxazine-4,3′-piperidin]-1′-yl)-3-(4-cyanophenyl)-1-oxopropan-2-yl)carbamoyl)phenyl)carbamate]	5.55	< 1.3	
COC(=O)Nc1ccc(C(=O)N[C@@H](Cc2ccccc2)C(=O)N2CC[C@@]3(C2)OC(=O)Nc2ccc(Cl)cc23)cc1 [Example 6, methyl (4-(((S)-1-((R)-6-chloro-2-oxo-1,2-dihydrospiro[benzo[d][1,3]oxazine-4,3′-pyrrolidin]-1′-yl)-1-oxo-3-phenylpropan-2-yl)carbamoyl)phenyl)carbamate]	4.7	4.02	
O=C1Nc2ccc(Cl)c(F)c2[C@@]2(CCCN(C(=O)[C@H](CC3CC3)NC(=O)c3ccc4[nH]nc(O)c4c3)C2)O1 [Example 214]		1.4	0.7
COC(=O)Nc1ccc(C(=O)N[C@@H](CC2CC2)C(=O)N2CCC[C@@]3(C2)OC(=O)Nc2ccc(C)cc23)cc1 [Example 66, methyl (4-(((S)-3-cyclopropyl-1-((R)-6-methyl-2-oxo-1,2-dihydrospiro[benzo[d][1,3]oxazine-4,3′-piperidin]-1′-yl)-1-oxopropan-2-yl)carbamoyl)phenyl)carbamate]	30	3.8	
COC(=O)Nc1ccc(C(=O)N[C@@H](Cc2ccccc2)C(=O)N2CC[C@@]3(C2)OC(=O)Nc2ccc(Cl)c(F)c23)cc1 [Example 7, methyl (4-(((S)-1-((R)-6-chloro-5-fluoro-2-oxo-1,2-dihydrospiro[benzo[d][1,3]oxazine-4,3′-pyrrolidin]-1′-yl)-1-oxo-3-phenylpropan-2-yl)carbamoyl)phenyl)carbamate]	4.44	3.51	
COC(=O)Nc1ccc(C(=O)N[C@@H](Cc2ccncc2F)C(=O)N2CCC[C@@]3(C2)OC(=O)Nc2ccc(Cl)c(F)c23)cc1 [Example 76, methyl (4-(((S)-1-((R)-6-chloro-5-fluoro-2-oxo-1,2-dihydrospiro[benzo[d][1,3]oxazine-4,3′-piperidin]-1′-yl)-3-(3-fluoropyridin-4-yl)-1-oxopropan-2-yl)carbamoyl)phenyl)carbamate]	1.39	1.2	
CC(C)OC(=O)Nc1ccc(C(=O)N[C@@H](Cc2ccccc2)C(=O)N2CCC[C@@]3(C2)OC(=O)Nc2ccc(Cl)c(F)c23)cc1 [Example 231, isopropyl (4-(((S)-1-((R)-6-chloro-5-fluoro-2-oxo-1,2-dihydrospiro[benzo[d][1,3]oxazine-4,3′-piperidin]-1′-yl)-1-oxo-3-phenylpropan-2-yl)carbamoyl)phenyl)carbamate]		4.74	35.1
COC(=O)Nc1ccc(C(=O)N[C@@H](CC(=O)N2CCCCC2)C(=O)N2CC[C@@]3(C2)OC(=O)Nc2ccc(Cl)cc23)cc1 [Example 87, methyl (4-(((S)-1-((R)-6-chloro-2-oxo-1,2-dihydrospiro[benzo[d][1,3]oxazine-4,3′-pyrrolidin]-1′-yl)-1,4-dioxo-4-(piperidin-1-yl)butan-2-yl)carbamoyl)phenyl)carbamate]	3.65	11	
COC(=O)Nc1ccc(C(=O)N[C@@H](CC(=O)N2CC(O)(C3CC3)C2)C(=O)N2CCC[C@@]3(C2)OC(=O)Nc2ccc(Cl)cc23)cc1 [Example 100, methyl (4-(((S)-1-((R)-6-chloro-2-oxo-1,2-dihydrospiro[benzo[d][1,3]oxazine-4,3′-piperidin]-1′-yl)-4-(3-cyclopropyl-3-hydroxyazetidin-1-yl)-1,4-dioxobutan-2-yl)carbamoyl)phenyl)carbamate]	39.9	19.7	
COC(=O)Nc1ccc(C(=O)N[C@@H](Cc2ccc(F)c(F)c2)C(=O)N2CCC3(C2)OC(=O)Nc2ccc(Cl)cc23)cc1 (stereo partly drawn) [Example 27, methyl (4-(((2S)-1-(6-chloro-2-oxo-1,2-dihydrospiro[benzo[d][1,3]oxazine-4,3′-pyrrolidin]-1′-yl)-3-(3,4-difluorophenyl)-1-oxopropan-2-yl)carbamoyl)phenyl)carbamate]	14.3	32.6	
COC(=O)Nc1ccc(C(=O)NC(C[C@@H]2CCCO2)C(=O)N2CCC[C@@]3(C2)OC(=O)Nc2ccc(Cl)c(F)c23)cc1 (single isomer, unassigned) [Example 116A]	7.51	4.78	
COC(=O)Nc1ccc(C(=O)N[C@@H](CCF)C(=O)N2CCC[C@@]3(C2)OC(=O)Nc2ccc(Cl)c(F)c23)cc1 [Example 105, methyl (4-(((S)-1-((R)-6-chloro-5-fluoro-2-oxo-1,2-dihydrospiro[benzo[d][1,3]oxazine-4,3′-piperidin]-1′-yl)-4-fluoro-1-oxobutan-2-yl)carbamoyl)phenyl)carbamate]	9.99	3.04	
O=C1Nc2ccc(Cl)c(F)c2[C@@]2(CCCN(C(=O)[C@H](CC3CC3)NC(=O)c3ccc4[nH]c(=O)ccc4c3)C2)O1 [Example 255]		0.45	4
COC(=O)Nc1ccc(C(=O)N[C@@H](Cc2ccc(-c3cnn(C)c3)cc2)C(=O)N2CC[C@@]3(C2)OC(=O)Nc2ccc(Cl)cc23)cc1 [Example 83, methyl (4-(((S)-1-((R)-6-chloro-2-oxo-1,2-dihydrospiro[benzo[d][1,3]oxazine-4,3′-pyrrolidin]-1′-yl)-3-(4-(1-methyl-1H-pyrazol-4-yl)phenyl)-1-oxopropan-2-yl)carbamoyl)phenyl)carbamate]	2.65	31.1	
COC(=O)Nc1ccc(C(=O)N[C@@H](Cc2ccccc2)C(=O)N2CCC[C@@]3(C2)OC(=O)Nc2ccc(C)c(F)c23)cc1 [Example 16, methyl (4-(((S)-1-((R)-5-fluoro-6-methyl-2-oxo-1,2-dihydrospiro[benzo[d][1,3]oxazine-4,3′-piperidin]-1′-yl)-1-oxo-3-phenylpropan-2-yl)carbamoyl)phenyl)carbamate]	3.85	1.36	
O=C1Nc2ccc(Cl)c(F)c2[C@@]2(CCCN(C(=O)[C@H](Cc3ccccc3)NC(=O)c3ccc4[nH]c(=O)ccc4c3)C2)O1 [Example 257]		0.57	0.78
COC(=O)Nc1n[nH]c2cc(C(=O)N[C@@H](Cc3ccccc3)C(=O)N3CC[C@@]4(C3)OC(=O)Nc3ccc(Cl)cc34)ccc12 [Example 227, methyl (6-(((S)-1-((R)-6-chloro-2-oxo-1,2-dihydrospiro[benzo[d][1,3]oxazine-4,3′-pyrrolidin]-1′-yl)-1-oxo-3-phenylpropan-2-yl)carbamoyl)-1H-indazol-3-yl)carbamate]		5	9
COC(=O)Nc1cccc(C(=O)N[C@@H](Cc2ccccc2)C(=O)N2CCC3(C2)OC(=O)Nc2ccc(Cl)cc23)c1 (stereo partly drawn) [Example 143, methyl (3-(((2S)-1-(6-chloro-2-oxo-1,2-dihydrospiro[benzo[d][1,3]oxazine-4,3′-pyrrolidin]-1′-yl)-1-oxo-3-phenylpropan-2-yl)carbamoyl)phenyl)carbamate]		2.63	1250
COC(=O)Nc1ccc(C(=O)N[C@@H](Cc2ccc(OC3CCCC3)cc2)C(=O)N2CCC3(C2)OC(=O)Nc2ccc(Cl)cc23)cc1 (stereo partly drawn) [Example 44, methyl (4-(((2S)-1-(6-chloro-2-oxo-1,2-dihydrospiro[benzo[d][1,3]oxazine-4,3′-pyrrolidin]-1′-yl)-3-(4-(cyclopentyloxy)phenyl)-1-oxopropan-2-yl)carbamoyl)phenyl)carbamate]	70	< 1.3	
COC(=O)Nc1ccc(C(=O)N[C@@H](CC(=O)NCC2CC2)C(=O)N2CCC[C@@]3(C2)OC(=O)Nc2ccc(Cl)cc23)cc1 [Example 99, methyl (4-(((S)-1-((R)-6-chloro-2-oxo-1,2-dihydrospiro[benzo[d][1,3]oxazine-4,3′-piperidin]-1′-yl)-4-((cyclopropylmethyl)amino)-1,4-dioxobutan-2-yl)carbamoyl)phenyl)carbamate]	40.4	17.6	
